According to US10650534B2, “Display control and image processing of a cell image” (Sony Corporation, priority 2011, dated 2020):
Entries after “also recorded” stand apart in the source; their conditions may differ.

Test system: cultured cardiomyocytes
Assay: Propagation of pulsation in cultured cardiomyocytes after drug administration, shown by two-dimensional color maps of the motion amount absolute value
Type: cell-based
Details: for speed of propagation of pulsation / state (direction, path) of propagation of pulsation: compared with organic solvent (control); for state (direction, path) of propagation of pulsation: color maps over 0 to 240 ms; for stop of propagation of pulsation / region without pulsation (motionless region): within the observation region
From the text: A drug evaluation apparatus 100 illustrated in FIG. 3 is an apparatus that conducts evaluation of a drug administered to cultured cardiomyocytes 110 by observing a motion of the cardiomyocytes 110. […] The imaging unit 101 images the cultured cardiomyocytes 110 during a predetermined period. That is, the imaging unit 101 obtains a moving image of the cultured cardiomyocytes 110 as an object. The imaging unit 101 images the cultured cardiomyocytes 110 before and after the drug administration. Note that the imaging unit 101 may image the cultured cardiomyocytes 110 several times after the drug administration according to a predetermined condition, such as after a predetermined time having passed, for example. The evaluation index data generation unit 103 performs, in each frame image of the supplied object to be evaluated image data 112, motion detection of the object to be observed (cultured cardiomyocytes 110) for each block that is a subregion obtained by dividing all regions of an image of the object to be observed (cultured cardiomyocytes 110) into a plurality of regions. The evaluation index data generation unit 103 expresses the detected motion of each block as a motion vector, and obtains the magnitude of the motion vector (motion amount). Note that this motion amount is an absolute value, and therefore, hereinafter, the motion amount will be also referred to as a motion amount absolute value. The evaluation unit 104 maps the motion amount absolute value supplied as the evaluation index data 113 into a two-dimensional color map, and evaluates the drug by expressing the state of propagation of pulsation and further, by quantitatively evaluating the state thereof. The evaluation unit 104 outputs the two-dimensional color map and a quantitative evaluation result as an evaluation value 114. The two-dimensional color map indicates the size of a parameter at each position on a plane in color. In this case, the plane represents an observation region of the cultured cardiomyocytes 110, and the color represents the motion amount absolute value (size of the value). That is, a position of the motion amount absolute value is represented by a position on the plane, and the size of the value is represented in color. That is, a distribution of the motion amount absolute value within the observation region is indicated by a change of the color on the plane. Examples of such a two-dimensional color map are illustrated in FIGS. 4 to 6. The eight color maps illustrated in FIG. 4 respectively indicate the distribution of the motion amount absolute value within the observation region, and a position on the color map indicates a position within the observation region and higher color density indicates a larger motion amount absolute value. […] Note that the arrows on the color maps are drawn for the purpose of description, and they are not drawn on actual color maps.

Structure (SMILES) | speed of propagation of pulsation | state (direction, path) of propagation of pulsation | stop of propagation of pulsation / region without pulsation (motionless region)
CC(C)NCC(O)c1ccc(NS(C)(=O)=O)cc1 (racemic) [DL-sotalol] | the speed of the propagation is slower than the left side | propagated from an upper left side to a lower right side, but the propagation stops within the observation region | pulsation is not caused in a part of the observation region in the right side; also recorded: the pulsation is not propagated to the right side portion of the observation region
CCCCCCCO [1-Heptanol] | the speed of the propagation is slow | linearly propagated as time passes while changing the direction to revolve | –
CC1(C)[C@@H](O)CC[C@]2(C)[C@H]3C(=O)C=C4[C@@H]5C[C@@](C)(C(=O)O)CC[C@]5(C)CC[C@@]4(C)[C@]3(C)CC[C@@H]12 [18-β-Glycyrrhetinic acid] | the speed of the propagation is slow | proceeds into various directions | the propagation of the pulsation temporarily stops
